Legend:
Details in all cases: 72 h
Caco-2 [1] = test: cell viability relative to DMSO; higher = less toxic
Calu-3 [2] = test: as above
HepG2 [3] = test: as above
U2OS [4] = test: as above
Vero E6 [5] = test: as above
Caco-2 [6] = test: relative viability EC50 (midpoint between 100% and the lowest measured viability); higher = less toxic
Calu-3 [7] = test: as above
HepG2 [8] = test: as above
U2OS [9] = test: as above
Vero E6 [10] = test: as above
Caco-2 [11] = test: drug sensitivity score (DSS) for viability; higher = more toxic; extreme values may be limits of the assay
Calu-3 [12] = test: as above
HepG2 [13] = test: as above
U2OS [14] = test: as above
Vero E6 [15] = test: as above

Row | Compound | cell viability (Caco-2 [1]; 1 nM) | cell viability (Caco-2 [1]; 10 nM) | cell viability (Caco-2 [1]; 100 nM) | cell viability (Caco-2 [1]; 1000 nM) | cell viability (Caco-2 [1]; 10000 nM) | cell viability (Calu-3 [2]; 1 nM) | cell viability (Calu-3 [2]; 10 nM) | cell viability (Calu-3 [2]; 100 nM) | cell viability (Calu-3 [2]; 1000 nM) | cell viability (Calu-3 [2]; 10000 nM) | cell viability (HepG2 [3]; 1 nM) | cell viability (HepG2 [3]; 10 nM) | cell viability (HepG2 [3]; 100 nM) | cell viability (HepG2 [3]; 1000 nM) | cell viability (HepG2 [3]; 10000 nM) | cell viability (U2OS [4]; 1 nM) | cell viability (U2OS [4]; 10 nM) | cell viability (U2OS [4]; 100 nM) | cell viability (U2OS [4]; 1000 nM) | cell viability (U2OS [4]; 10000 nM) | cell viability (Vero E6 [5]; 1 nM) | cell viability (Vero E6 [5]; 10 nM) | cell viability (Vero E6 [5]; 100 nM) | cell viability (Vero E6 [5]; 1000 nM) | cell viability (Vero E6 [5]; 10000 nM) | relative viability EC50 (Caco-2 [6]) | relative viability EC50 (Calu-3 [7]) | relative viability EC50 (HepG2 [8]) | relative viability EC50 (U2OS [9]) | relative viability EC50 (Vero E6 [10]) | drug sensitivity score (Caco-2 [11]) | drug sensitivity score (Calu-3 [12]) | drug sensitivity score (HepG2 [13]) | drug sensitivity score (U2OS [14]) | drug sensitivity score (Vero E6 [15])
1 | Cc1ccc(-c2n[nH]c3c2C(c2cccc(O)c2)N(c2ccc(C(=O)O)cc2)C3=O)cc1 (stereo not given) | 93.4% | 99.2% | 87% | 100% | 100% | 92% | 105% | 98.6% | 99.9% | 88.2% | 111% | 101% | 114% | 93.4% | 103% | 90.5% | 96.2% | 99.1% | 99.7% | 98.1% | 102% | 104% | 101% | 95.8% | 101% | > 10 µM | > 10 µM | > 10 µM | > 10 µM | > 10 µM | 0 | 0 | 0 | 0 | 0
2 | CC(C)c1ccc2c(c1)CC[C@H]1[C@](C)(CN)CCC[C@]21C [lylamine] | 109% | 103% | 106% | 98.4% | 16.7% | 96% | 98% | 97.8% | 104% | 1.4% | 104% | 109% | 92.3% | 110% | 0% | 103% | 98.5% | 103% | 97.1% | 19.4% | 108% | 108% | 105% | 97.8% | 3.1% | 3.03 µM | 3.37 µM | 3.64 µM | 2.9 µM | 3.01 µM | 4.8 | 5.2 | 4.9 | 4.9 | 5.7
3 | CCc1ccc(/C=C/C(=O)Nc2ccc(C(C)=O)cc2)o1 [heclin] | 91.1% | 102% | 91.4% | 95.2% | 88.4% | 98.5% | 106% | 95% | 99.6% | 87.3% | 93.6% | 95.6% | 88.5% | 92.3% | 85.6% | 93.2% | 98.6% | 96.3% | 94.2% | 90.3% | 102% | 103% | 98.9% | 99.9% | 103% | > 10 µM | > 10 µM | > 10 µM | > 10 µM | > 10 µM | 0 | 0.1 | 0.4 | 0 | 0
4 | CCOC(=O)c1ccc(N)cc1 [benzocaine] | 96.4% | 84.7% | 101% | 97.9% | 97% | 94% | 96% | 105% | 105% | 98.7% | 98.6% | 94.9% | 98.1% | 95% | 96.5% | 99.3% | 95.4% | 99.9% | 99.6% | 95.5% | 103% | 102% | 95.7% | 102% | 110% | > 10 µM | > 10 µM | > 10 µM | > 10 µM | > 10 µM | 0 | 0 | 0 | 0 | 0
5 | CNC(=O)CN(CCN(CCN(CC(=O)[O-])CC(=O)NC)CC(=O)[O-])CC(=O)[O-].[Gd+3] [gadodiamide] | 92.9% | 98.9% | 90.9% | 91.1% | 103% | 115% | 96.9% | 105% | 98.8% | 108% | 96.6% | 102% | 108% | 98.6% | 93.1% | 103% | 102% | 96.6% | 98.3% | 98.1% | 97.6% | 101% | 98.5% | 97.9% | 94.3% | > 10 µM | > 10 µM | > 10 µM | > 10 µM | > 10 µM | 0 | 0 | 0 | 0 | 0
6 | c1ccc2c(c1)CN1CCCC1=N2 [desoxypeganine] | 97.6% | 113% | 105% | 94.7% | 97.9% | 95.1% | 111% | 99.6% | 89.2% | 107% | 89.7% | 75.1% | 91.6% | 91.1% | 96.8% | 98.7% | 101% | 93% | 94.5% | 99.3% | 98.4% | 96.5% | 105% | 98% | 95.2% | > 10 µM | > 10 µM | > 10 µM | > 10 µM | > 10 µM | 0 | 0 | 0 | 0 | 0
7 | CS(=O)(=O)c1ccc(-c2cc(Br)sc2-c2ccc(F)cc2)cc1 [DUP-697] | 110% | 95.1% | 102% | 104% | 88.2% | 97.2% | 98% | 103% | 112% | 114% | 103% | 107% | 105% | 104% | 79.5% | 103% | 98.1% | 103% | 105% | 104% | 95.6% | 101% | 93.4% | 96.5% | 97.8% | > 10 µM | > 10 µM | > 10 µM | > 10 µM | > 10 µM | 0 | 0 | 0.4 | 0 | 0
8 | COc1cccc(N(C)C(=S)Oc2ccc3c(c2)CCCC3)n1 [liranaftate] | 97.4% | 97.7% | 96.2% | 109% | 97.5% | 96.9% | 98.4% | 102% | 105% | 97.6% | 105% | 97.7% | 101% | 100% | 110% | 97.2% | 98.3% | 95.5% | 96.6% | 95.8% | 97.2% | 99.4% | 99.6% | 95.2% | 99.3% | > 10 µM | > 10 µM | > 10 µM | > 10 µM | > 10 µM | 0 | 0 | 0 | 0 | 0
9 | O=C(O)CCc1cc(I)c(Oc2ccc(O)cc2)c(I)c1 [diiodothyropropionic-acid] | 113% | 124% | 94.4% | 113% | 109% | 96.8% | 101% | 94.5% | 99.6% | 93.6% | 104% | 95% | 113% | 103% | 99.8% | 96.2% | 99.1% | 95.8% | 98.4% | 96.6% | 105% | 103% | 104% | 87.1% | 92.1% | > 10 µM | > 10 µM | > 10 µM | > 10 µM | > 10 µM | 0 | 0 | 0 | 0 | 0.7
10 | O=C(O)c1ccc(S(=O)(=O)N(Cl)Cl)cc1 [halazone] | 112% | 93.5% | 84.2% | 90.1% | 90.8% | 106% | 99.6% | 95.4% | 94.7% | 107% | 97.1% | 94.1% | 110% | 107% | 100% | 101% | 95.6% | 98.7% | 95.6% | 102% | 107% | 108% | 106% | 97% | 96.7% | > 10 µM | > 10 µM | > 10 µM | > 10 µM | > 10 µM | 3.5 | 0 | 0 | 0 | 0
11 | O=C1OC(OC(=O)c2cccnc2Nc2cccc(C(F)(F)F)c2)c2ccccc21 (stereo not given) [talniflumate] | 95.4% | 96.9% | 99.5% | 102% | 104% | 90.9% | 100% | 95% | 99.1% | 101% | 96.3% | 89.6% | 104% | 96.7% | 104% | 97.1% | 101% | 98.9% | 102% | 103% | 99% | 97.6% | 96.8% | 91% | 95.3% | > 10 µM | > 10 µM | > 10 µM | > 10 µM | > 10 µM | 0 | 0 | 0 | 0 | 0
12 | NC(=O)c1cc([N+](=O)[O-])cc([N+](=O)[O-])c1 [nitromide] | 97.5% | 95.2% | 95.8% | 104% | 104% | 93.9% | 101% | 95% | 105% | 112% | 112% | 95.1% | 99.7% | 119% | 104% | 100% | 98.4% | 101% | 96.5% | 107% | 98.3% | 96.6% | 93.6% | 94.5% | 108% | > 10 µM | > 10 µM | > 10 µM | > 10 µM | > 10 µM | 0 | 0 | 0 | 0 | 0
13 | CCCOCCn1c(=O)c(N2CCN(CCO)CC2)nc2cnc(-c3ccc(OC)nc3)cc21 | 102% | 92.3% | 94.4% | 86.8% | 93.6% | 99.5% | 88.8% | 98.9% | 94.2% | 104% | 109% | 105% | 98.8% | 104% | 87.1% | 95.5% | 97.4% | 103% | 95.5% | 99.8% | 109% | 107% | 100% | 107% | 92.8% | > 10 µM | > 10 µM | > 10 µM | > 10 µM | > 10 µM | 0.1 | 0 | 0 | 0 | 0
14 | C/C=C1/[C@H](O[C@@H]2O[C@H](CO)[C@@H](O)[C@H](O)[C@H]2O)OC=C(C(=O)OC)[C@H]1CC(=O)OCCc1ccc(O)c(O)c1 [oleuropein] | 101% | 108% | 99.9% | 101% | 88.8% | 90.8% | 98.8% | 101% | 102% | 93.6% | 101% | 97.1% | 98.1% | 108% | 84.4% | 105% | 98.7% | 101% | 95.1% | 97.8% | 98.8% | 103% | 98.7% | 105% | 95.2% | > 10 µM | > 10 µM | > 10 µM | > 10 µM | > 10 µM | 0 | 0 | 0.1 | 0 | 0

From the supplement of paper PMC13380429
